Experiment [1] concerns Pseudomonas aeruginosa. The experiment in a line: Inhibition of N-terminal His-tagged Pseudomonas aeruginosa RmIA expressed in Escherichia coli BL21 (lambdaDE3) at 10 uM using dTTP and G-1-P as substrates incubated for 30 mins by Biomol green reagent based assay relative to control.
A short description of experiment [2]: Inhibition of N-terminal His-tagged Pseudomonas aeruginosa RmIA expressed in Escherichia coli BL21 (lambdaDE3) using dTTP and G-1-P as substrates incubated for 30 mins by Biomol green reagent based assay.
Experiment [3] concerns Mycobacterium tuberculosis. The experiment in a line: Antimycobacterial activity against Mycobacterium tuberculosis assessed as inhibition of bacterial growth. In kind it is functional. Particulars: read-out: MIC100.

≈ marks a conversion by molar mass, not a printed value.

In the case of `CN(c1c(NCCCn2cc(CN)nn2)n(Cc2ccccc2)c(=O)[nH]c1=O)S(=O)(=O)c1ccccc1`, in experiment [1], the inhibition was 100%.

Regarding `CNCCNc1c(N(C)S(=O)(=O)c2ccccc2)c(=O)[nH]c(=O)n1Cc1ccc(Br)cc1`, in experiment [2], the IC50 was found to be 0.096 µM.

Take `CN(c1c(N)n(Cc2ccc(Br)cc2)c(=O)[nH]c1=O)S(=O)(=O)c1ccccc1`: in experiment [1], the inhibition was determined as 100%.

Regarding `CN(c1c(N)n(Cc2ccccc2)c(=O)[nH]c1=O)S(=O)(=O)c1ccccc1`, in experiment [3], the MIC came to 100 µg/mL (≈ 259 µM).

Turning to `CN(c1c(NCCCCN)n(Cc2ccc(Br)cc2)c(=O)[nH]c1=O)S(=O)(=O)c1ccccc1`, the inhibition in experiment [1] came to 100%.

Consider `CNCCCNc1c(N(C)S(=O)(=O)c2ccccc2)c(=O)[nH]c(=O)n1Cc1ccc(Br)cc1`, for which the inhibition in experiment [1] amounted to 100%.

Compound `CN(c1c(NCCCCCN)n(Cc2ccc(Br)cc2)c(=O)[nH]c1=O)S(=O)(=O)c1ccccc1` yielded an inhibition in experiment [1] of 100%.

As usually defined, the inhibition is the relative decrease from the control value, in per cent. Low values mean little suppression, high ones strong suppression. As a reminder, the IC50 is the concentration that inhibits the measured activity by half.

Source of the values: ChEMBL document CHEMBL5053537, “Next generation Glucose-1-phosphate thymidylyltransferase (RmlA) inhibitors: An extended SAR study to direct future design” (Bioorg Med Chem, 2021).
